Test results published in patent US10542747B2, “Plant irrigation methods with 1-MCP” (Syngenta Participations AG, priority 2010, dated 2020).

Columns and labels:
[1] = test system: Wheat plants, variety ARINA; assay: Effect of 1-MCP on stressed wheat plants grown in pouches (drought stress); format: in vivo; conditions: 200 ppm in the pouch water at day 8; 5 days without watering at 26° C.; FIG. 1
Method: FIG. 1 illustrates wheat plants grown in pouches. On the right-hand side plants treated with 1-MCP and on the left-hand side non treated check plants.
10 mL of the mixture are added per pouch with a pipette.
20 to 25 Wheat kernels from the variety ARINA were sown in a plastic bag (pouch) with an absorbent paper, watered and grown under optimal conditions in a climate chamber for 8 days. At day 8 the 1-MCP in the form of an α-cyclodextrin molecularly encapsulated powder was applied at a 200 ppm rate to the water in the pouch. After application the plants were not watered anymore, but placed in a warm environment at 26° C. After 5 days without watering the differences of treated vs. untreated were evaluated visually (FIG. 1).

[2] = test system: 5-6 leaf tomato plants (var. Rutgers); assay: Tomato epinasty test (Cerone/ethephon challenge); format: in vivo; conditions: 200 l/ha, average of 8 plants
Method: Bioassay test material: 5-6 leaf tomato plants (var. Rutgers), 8 reps/treatment.
The first column of table 1 provides a summary of change in angle of the 3rd leaf petiole at 24 hours after application of Cerone (ethephon). There are two sets of data, one for those challenged with Cerone at 4 hours after 1-MCP formulation application and a second set for plants challenged with Cerone at 24 hrs after 1-MCP formulation application. Data are the averages of 8 replicate plants
Procedures Used for Epinasty Test:
1-MCP formulation and rates: 1-MCP in the form of an α-cyclodextrin molecularly encapsulated powder dispersed in an aqueous MgSO4 solution
Standard foliar spray at 200 l/ha and 0.035% v/v kinetic silicon adjuvant 0, 10 and 20 g ai/ha
Application rate 500 g ai/ha at 400 l/ha application volume
Application at 4 and 24 HAA of Invinsa
Angle of 3rd petiole to plants stem measured prior to 1-MCP application and again at 24 HAT Final data expressed as average change in 3rd petiole angle

[3] = cited from earlier work
[4] = test system: 5-6 leaf tomato plants (var. Rutgers); assay: Tomato epinasty test (Cerone/ethephon challenge); format: in vivo; conditions: average of 8 plants

With CC1=CC1 [1-MCP, 1-methylcyclopropene] the “drought tolerance of treated vs. untreated plants, evaluated visually” value [1] was “greater drought tolerance than control plants”, the “Average change in angle of third petiole” value ([2]; 10 g ai/ha foliar spray, Cerone applied 4 HAA 1-MCP) was 71 and the “Average change in angle of third petiole” value ([2]; 10 g ai/ha foliar spray, Cerone applied 24 HAA 1-MCP) was 82. For the same molecule, the “Average change in angle of third petiole” value ([2]; 20 g ai/ha foliar spray, Cerone applied 4 HAA 1-MCP) was 40, the “Average change in angle of third petiole” value ([2]; 20 g ai/ha foliar spray, Cerone applied 24 HAA 1-MCP) was 86 and the water-solubility [3] was 137 mg I−1. For the same molecule, the “Average change in angle of third petiole” value ([4]; 1 g ai/ha chemigation, Cerone applied 4 HAA 1-MCP) was 60, the “Average change in angle of third petiole” value ([4]; 1 g ai/ha chemigation, Cerone applied 24 HAA 1-MCP) was 78 and the “Average change in angle of third petiole” value ([4]; 10 g ai/ha chemigation, Cerone applied 4 HAA 1-MCP) was 20. The “Average change in angle of third petiole” value ([4]; 10 g ai/ha chemigation, Cerone applied 24 HAA 1-MCP) was 48, the “Average change in angle of third petiole” value ([4]; 20 g ai/ha chemigation, Cerone applied 4 HAA 1-MCP) was −9 and the “Average change in angle of third petiole” value ([4]; 20 g ai/ha chemigation, Cerone applied 24 HAA 1-MCP) was 41. The “Average change in angle of third petiole” value ([4]; >20 g ai/ha chemigation (incorrect pump calibration), Cerone applied 4 HAA 1-MCP) was −4 and the “Average change in angle of third petiole” value ([4]; >20 g ai/ha chemigation (incorrect pump calibration), Cerone applied 24 HAA 1-MCP) was 18.
